Reference: publication PMC9596378, “Discovery and molecular basis of subtype-selective cyclophilin inhibitors” (Nature Chemical Biology, 2022)
Several values for one entry are separate records, joined by “and”; a condition that tells them apart may be missing. Equal entries are not always repeated. Where two headings read alike, the source gives them in different places.

How the values were obtained:
Test in all cases: Chymotrypsin coupled prolyl-isomerase assay
CypD R124A = target: T1, CypD R124A (Homo sapiens, UniProt P30405, R124A); type: biochemical
T1 construct: made in house; host or cells: E. coli BL21(DE3)
Outline: (§1)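 Cyclophilin (5 nM final) in 25 mM HEPES pH 7.3, 100 mM NaCl, 0.01% Triton X-100 was preincubated with compound (0.25% DMSO) 5 min at 2–3 °C, then with 25 µM α-chymotrypsin 5 min. Suc-AAPF-AMC (5 µM, in LiCl/trifluoroethanol) started the reaction; AMC fluorescence read every 1 s for 330 s.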

CypD K118E = target: T2, CypD K118E (Homo sapiens, UniProt P30405, K118E); type: biochemical; details: for IC50: prolyl-isomerase inhibition
T2 construct: made in house; host or cells: E. coli BL21(DE3)
Outline: as §1

CypD = CypD (Homo sapiens, UniProt P30405); details: for prolyl-isomerase activity (raw dose-response value): CypD
PPWD1 = target: T3, PPWD1 (Homo sapiens, UniProt Q96BP3); type: biochemical; details: for prolyl-isomerase activity (raw dose-response value): in s^-1
T3 construct: PPWD1 (UniProtKB Entry Q96BP3: residues 473–646); host or cells: E. coli BL21(DE3)
T3 sequence (Q96BP3 473-646): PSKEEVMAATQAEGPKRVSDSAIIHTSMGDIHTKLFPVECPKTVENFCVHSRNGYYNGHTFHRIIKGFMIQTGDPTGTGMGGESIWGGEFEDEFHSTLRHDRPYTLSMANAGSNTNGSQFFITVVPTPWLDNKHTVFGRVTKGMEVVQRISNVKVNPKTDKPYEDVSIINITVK

PPIL1 = target: T4, PPIL1 (Homo sapiens, UniProt Q9Y3C6); type: biochemical
T4 construct: PPIL1 (UniProtKB Entry Q9Y3C6: residues 1–166); made in house; host or cells: E. coli BL21(DE3)
T4 sequence (Q9Y3C6 1-166): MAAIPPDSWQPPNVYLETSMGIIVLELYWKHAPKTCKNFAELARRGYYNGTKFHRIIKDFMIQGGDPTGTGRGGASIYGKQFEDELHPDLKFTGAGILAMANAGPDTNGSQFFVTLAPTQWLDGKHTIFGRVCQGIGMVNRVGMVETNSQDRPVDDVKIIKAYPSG

CypA E81S/K82R = target: T5, CypA E81S/K82R (Homo sapiens, UniProt P62937, E81S/K82R); type: biochemical; details: prolyl-isomerase inhibition; read-out: IC50 CypA E81S/K82R
T5 construct: Lane 12- SNA-CypA E81S/K82R (1-165);; His6 tag with TEV site (2BT vector); SNA remnant stays on the N-terminus (N, cleaved yes); made in house; host or cells: E. coli BL21(DE3)
Outline: as §1

CypD R124K = target: T6, CypD R124K (Homo sapiens, UniProt P30405, R124K); type: biochemical; details: mutant CypD R124K; read-out: Mutant Cyclophilin Prolyl Isomerase Inhibition IC50 Values, CypD R124K
T6 construct: made in house; host or cells: E. coli BL21(DE3)
Outline: as §1

CypD K118A = target: T7, CypD K118A (Homo sapiens, UniProt P30405, K118A); type: biochemical; details: prolyl-isomerase inhibition
T7 construct: made in house; host or cells: E. coli BL21(DE3)
Outline: as §1

CypD S123E = target: T8, CypD S123E (Homo sapiens, UniProt P30405, S123E); type: biochemical; details: prolyl-isomerase inhibition
T8 construct: made in house; host or cells: E. coli BL21(DE3)
Outline: as §1

[1] = wild-type PPWD1, read-out: Wild-Type Cyclophilin Prolyl Isomerase Inhibition IC50 Values, PPWD1
[2] = wild-type PPIL1, read-out: Wild-Type Cyclophilin Prolyl Isomerase Inhibition IC50 Values, PPIL1

T2 sequence (P30405 45-207 K118E): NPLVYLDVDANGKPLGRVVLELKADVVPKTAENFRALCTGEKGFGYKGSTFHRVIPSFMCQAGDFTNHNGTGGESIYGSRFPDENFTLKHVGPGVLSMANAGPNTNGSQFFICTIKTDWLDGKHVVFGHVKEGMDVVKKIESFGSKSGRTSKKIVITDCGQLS
Chain of CypD (P30405 45-207): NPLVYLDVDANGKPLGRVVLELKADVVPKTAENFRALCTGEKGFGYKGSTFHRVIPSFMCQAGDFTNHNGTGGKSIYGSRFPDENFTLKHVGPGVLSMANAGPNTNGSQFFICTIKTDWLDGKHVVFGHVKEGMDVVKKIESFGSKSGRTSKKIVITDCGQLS
T1 sequence (P30405 45-207 R124A): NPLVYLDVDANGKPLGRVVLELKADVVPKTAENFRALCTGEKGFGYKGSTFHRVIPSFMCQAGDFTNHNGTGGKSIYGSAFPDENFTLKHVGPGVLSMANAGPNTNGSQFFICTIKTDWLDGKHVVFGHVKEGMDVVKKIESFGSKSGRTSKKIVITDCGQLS
T8 sequence (P30405 45-207 S123E): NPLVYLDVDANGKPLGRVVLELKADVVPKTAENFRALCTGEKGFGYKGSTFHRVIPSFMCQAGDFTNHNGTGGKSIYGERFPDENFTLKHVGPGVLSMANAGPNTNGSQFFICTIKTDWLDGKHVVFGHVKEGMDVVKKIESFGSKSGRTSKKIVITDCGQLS
T5 sequence (P62937 whole entry E81S/K82R): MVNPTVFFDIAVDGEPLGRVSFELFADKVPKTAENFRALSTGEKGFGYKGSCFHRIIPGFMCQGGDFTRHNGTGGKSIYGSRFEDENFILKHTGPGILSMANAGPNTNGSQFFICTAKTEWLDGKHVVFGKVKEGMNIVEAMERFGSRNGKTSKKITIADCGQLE
T7 sequence (P30405 45-207 K118A): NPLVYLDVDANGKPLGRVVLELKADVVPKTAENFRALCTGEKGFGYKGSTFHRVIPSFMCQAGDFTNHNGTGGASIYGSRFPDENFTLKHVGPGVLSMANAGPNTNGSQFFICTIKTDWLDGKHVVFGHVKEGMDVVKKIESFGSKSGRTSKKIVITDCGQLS
T6 sequence (P30405 45-207 R124K): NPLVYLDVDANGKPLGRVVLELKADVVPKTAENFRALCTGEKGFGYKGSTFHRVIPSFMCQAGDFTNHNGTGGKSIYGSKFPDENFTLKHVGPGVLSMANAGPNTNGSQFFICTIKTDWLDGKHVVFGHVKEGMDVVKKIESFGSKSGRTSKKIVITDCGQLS

NCCCc1ccc(-c2ccc(C[C@@H]3NC(=O)[C@]4(Cc5ccccc5)CCCN(C4)C(=O)/C=C/C(=O)NCC[C@@H](C(=O)NCCOCCN)NC(=O)Cc4ccccc4CNC3=O)cc2)cc1 [Compound B32]
IC50 (CypD R124A; prolyl-isomerase inhibition, read-out: IC50 CypD R124A): 0.7 µM | IC50 (CypD K118E): 1.1 µM | potency improvement on CypD K118E, R124A compared to wild-type CypD (CypD K118E; single mutants K118E, R124A): 5- to 6 fold | IC50 (CypD): 6 µM | reduction in potency for CypD on replacing the carboxylate with an amine (CypD): 500- to 1,000 fold | IC50 (PPWD1; [1]): 0.8 µM | IC50 (PPIL1; [2]): 2 µM

NCCOCCNC(=O)[C@@H]1CCNC(=O)/C=C/C(=O)N2CCC[C@](Cc3ccccc3)(C2)C(=O)N[C@@H](Cc2ccc(-c3ccc(C(CC(=O)O)CC(=O)O)cc3)cc2)C(=O)NCc2ccccc2CC(=O)N1 [Compound B53]
IC50 (CypA E81S/K82R): 0.18 µM | IC50 (CypD R124K): 0.1 µM | IC50 (CypD R124A; mutant CypD R124A, read-out: Mutant Cyclophilin Prolyl Isomerase Inhibition IC50 Values, CypD R124A): 0.032 µM | IC50 (CypD K118A): 0.9 µM | IC50 (CypD S123E): 0.8 µM | IC50 (CypD K118E): 4 µM | IC50 (CypD): 0.057 µM | IC50 (CypD; IC50 CypD, Independent replicate 1, mean±SEM of 3 technical replicates): 0.04 ± 0.01 µM | IC50 (CypD; IC50 CypD, Independent replicate 2): 0.05 ± 0.02 µM | IC50 (CypD; IC50 CypD, Independent replicate 3): 0.06 ± 0.02 µM | IC50 (CypD; IC50 CypD, Independent replicate 4): 0.06 ± 0.03 µM | selectivity for CypD against the remaining six cyclophilins (CypD; prolyl-isomerase IC50): > 900 fold | selectivity for CypD over CypA (CypD; prolyl-isomerase IC50): > 100 fold and 100 fold | selectivity for CypD over CypA and PPIL1 (CypD; prolyl-isomerase IC50): 60- to 900 fold | selectivity for CypD over CypE and CypB (CypD; prolyl-isomerase IC50): 15- to 30 fold | IC50 (PPWD1; Independent replicate 1, read-out: IC50 PPWD1): > 50 µM | IC50 (PPWD1; Independent replicate 2, read-out: IC50 PPWD1): > 50 µM | IC50 (PPWD1; Independent replicate 3, read-out: IC50 PPWD1): > 50 µM | IC50 (PPWD1; Independent replicate 4, read-out: IC50 PPWD1): > 50 µM | IC50 (PPWD1; prolyl-isomerase inhibition, 5 nM cyclophilin, read-out: IC50 PPWD1): > 50 µM | IC50 (PPWD1; [1]): > 50 µM | IC50 (PPIL1; Independent replicate 1, read-out: IC50 PPIL1): ~30 µM | IC50 (PPIL1; Independent replicate 2, read-out: IC50 PPIL1): > 50 µM | IC50 (PPIL1; Independent replicate 3, read-out: IC50 PPIL1): > 50 µM | IC50 (PPIL1; Independent replicate 4, read-out: IC50 PPIL1): > 50 µM | IC50 (PPIL1; prolyl-isomerase inhibition, 5 nM cyclophilin, read-out: IC50 PPIL1): > 50 µM | IC50 (PPIL1; [2]): > 50 µM

NCCOCCNC(=O)[C@@H]1CCNC(=O)/C=C/C(=O)N2CCC[C@](Cc3ccccc3)(C2)C(=O)N[C@@H](Cc2ccc(C(=O)c3ccccc3)cc2)C(=O)NCc2ccccc2CC(=O)N1 [Compound B1]
IC50 (CypD): 0.04 µM | prolyl-isomerase activity (raw dose-response value) (CypD; dose 0.00244141 µM): 0.1167 and 0.1009 and 0.132 | prolyl-isomerase activity (raw dose-response value) (CypD; dose 0.00488281 µM): 0.1171 and 0.1006 and 0.1105 | prolyl-isomerase activity (raw dose-response value) (CypD; dose 0.00976562 µM): 0.1045 and 0.1074 and 0.1165 | prolyl-isomerase activity (raw dose-response value) (CypD; dose 0.0195312 µM): 0.0977 and 0.1005 and 0.09149 | prolyl-isomerase activity (raw dose-response value) (CypD; dose 0.0390625 µM): 0.07882 and 0.0807 and 0.08119 | prolyl-isomerase activity (raw dose-response value) (CypD; dose 0.078125 µM): 0.05821 and 0.05418 and 0.05518 | prolyl-isomerase activity (raw dose-response value) (CypD; dose 0.15625 µM): 0.03845 and 0.03512 and 0.03854 | prolyl-isomerase activity (raw dose-response value) (CypD; dose 0.3125 µM): 0.0261 and 0.02523 and 0.02516 | prolyl-isomerase activity (raw dose-response value) (CypD; dose 0.625 µM): 0.0197 and 0.01788 and 0.01929 | prolyl-isomerase activity (raw dose-response value) (CypD; dose 1.25 µM): 0.01434 and 0.01347 and 0.01416 | prolyl-isomerase activity (raw dose-response value) (CypD; dose 2.5 µM): 0.009932 and 0.009111 and 0.008108 | prolyl-isomerase activity (raw dose-response value) (PPWD1; PPWD1, dose 0.00244141 µM): 0.05276 and 0.05431 and 0.05271 | prolyl-isomerase activity (raw dose-response value) (PPWD1; PPWD1, dose 0.00488281 µM): 0.05268 and 0.05435 and 0.05318 | prolyl-isomerase activity (raw dose-response value) (PPWD1; PPWD1, dose 0.00976562 µM): 0.05613 and 0.05695 and 0.05468 | prolyl-isomerase activity (raw dose-response value) (PPWD1; PPWD1, dose 0.0195312 µM): 0.05207 and 0.05349 and 0.04937 | prolyl-isomerase activity (raw dose-response value) (PPWD1; PPWD1, dose 0.0390625 µM): 0.05208 and 0.05238 and 0.05082 | prolyl-isomerase activity (raw dose-response value) (PPWD1; PPWD1, dose 0.078125 µM): 0.04871 and 0.04927 and 0.04631 | prolyl-isomerase activity (raw dose-response value) (PPWD1; PPWD1, dose 0.15625 µM): 0.04828 and 0.0525 and 0.04634 | prolyl-isomerase activity (raw dose-response value) (PPWD1; PPWD1, dose 0.3125 µM): 0.04787 and 0.04701 and 0.04264 | prolyl-isomerase activity (raw dose-response value) (PPWD1; PPWD1, dose 0.625 µM): 0.04382 and 0.04097 and 0.03416 | prolyl-isomerase activity (raw dose-response value) (PPWD1; PPWD1, dose 1.25 µM): 0.03009 and 0.02964 and 0.0254 | prolyl-isomerase activity (raw dose-response value) (PPWD1; PPWD1, dose 2.5 µM): 0.02331 and 0.02391 and 0.0225 | IC50 (PPWD1; [1]): 1.4 µM | prolyl-isomerase activity (raw dose-response value) (PPIL1; PPIL1, dose 0.0228624 µM): 0.0901 and 0.08843 and 0.1022 | prolyl-isomerase activity (raw dose-response value) (PPIL1; PPIL1, dose 0.0685871 µM): 0.07658 and 0.07564 and 0.08071 | prolyl-isomerase activity (raw dose-response value) (PPIL1; PPIL1, dose 0.205761 µM): 0.05553 and 0.06081 and 0.06346 | prolyl-isomerase activity (raw dose-response value) (PPIL1; PPIL1, dose 0.617284 µM): 0.04442 and 0.03692 and 0.0407 | prolyl-isomerase activity (raw dose-response value) (PPIL1; PPIL1, dose 1.85185 µM): 0.02604 and 0.02534 and 0.024 | prolyl-isomerase activity (raw dose-response value) (PPIL1; PPIL1, dose 5.55556 µM): 0.01797 and 0.0175 and 0.01949 | prolyl-isomerase activity (raw dose-response value) (PPIL1; PPIL1, dose 16.6667 µM): 0.01539 and 0.0139 and 0.01238 | prolyl-isomerase activity (raw dose-response value) (PPIL1; PPIL1, dose 50 µM): 0.01281 and 0.01627 and 0.01081 | IC50 (PPIL1; [2]): 0.2 µM
